Patent US9328138B2 (priority 2011, dated 2016)
Counter-ions that a name gives are not always drawn.

Assays:
[1] = target: T1, HCV genotype 1b (BK) NS3 modified enzyme with a R155K mutation (Hepatitis C virus genotype 1b, UniProt P26663, R1181K); experiment: HCV NS3 protease time-resolved fluorescence (TRF) assay, genotype 1b R155K; assay type: biochemical; conditions: Ki 1b R155K
T1 construct: HCV genotype 1b (BK) NS3 modified enzyme
Outline: (§1)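 Steps: compound plus NS3/NS4A enzyme for 10 minutes; add peptide substrate to 25 nM; let cleavage proceed 6 hours at room temperature; read product fluorescence (340 nm excitation, 615 nm emission, delayed 400 μs). Enzyme levels gave signal/background 5-20.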

[2] = target: HCV NS3 protease genotype 3a (3A-1) (Hepatitis C virus genotype 3a, UniProt Q81258); experiment: HCV NS3 protease time-resolved fluorescence (TRF) assay, genotype 3a; assay type: biochemical; conditions: Ki 3a
Outline: as §1

[3] = first of two values printed in the cell (not explained)
[4] = second of two values printed in the cell (not explained)
[5] = genotype 1b (BK) NS3 R155K, single value

Compound | Ki [1, 3] | Ki [1, 4] | Ki [2] | Ki [1, 5]
C=C[C@@H]1C[C@]1(NC(=O)[C@@H]1C[C@@H]2CN1C(=O)[C@H](C1CCCCC1)NC(=O)O[C@@H]1C[C@H]1CCCCCc1c(nc3ccccc3c1OCCCNC1CC(F)(F)C1)O2)C(=O)NS(=O)(=O)C1(C)CC1 [Example 243, (1aR,5S,8S,10R,22aR)-5-cyclohexyl-17-{3-[(3,3-difluorocyclobutyl)amino]propoxy}-N-[(1R,2S)-2-ethenyl-1-{[(1-methylcyclopropyl)sulfonyl]carbamoyl}cyclopropyl]-3,6-dioxo-1,1a,3,4,5,6,9,10,18,19,20,21,22,22a-tetradecahydro-8H-7,10-methanocyclopropa[18,19][1,10,3,6]dioxadiazacyclononadecino[11,12-b]quinoline-8-carboxamide] | 0.033 nM | 0.275 nM | 3.31 nM | 
C=C[C@@H]1CC1(NC(=O)[C@@H]1C[C@@H]2CN1C(=O)[C@H](C(C)(C)C)NC(=O)O[C@@H]1C[C@H]1CCCCCc1c(nc3ccccc3c1OC1C3CNCC1COC3)O2)C(=O)NS(=O)(=O)C1(C)CC1 (single isomer, unassigned) [Example 259, trifluoroacetate] | 0.03 nM | 0.35 nM | 7.4 nM | 
C=C[C@@H]1C[C@]1(NC(=O)[C@@H]1C[C@@H]2CN1C(=O)[C@H](C(C)(C)C)NC(=O)O[C@@H]1C[C@H]1CCCCCc1c(nc3ccccc3c1OCCCN1CCNC(C(F)(F)F)C1)O2)C(=O)NS(=O)(=O)C1(C)CC1 (stereo partly drawn) [Example 205, (1aR,5S,8S,10R,22aR)-5-tert-butyl-N-[(1R,2S)-2-ethenyl-1-{[(1-methylcyclopropyl)sulfonyl]carbamoyl}cylcopropyl]-3,6-dioxo-17-{3-[3-(trifluoromethyl)piperazin-1-yl]propoxy}-1,1a,3,4,5,6,9,10,18, 19,20,21,22,22a-tetradecahydro-8H-7,10-methanocyclopropa[18,19][1,10,3,6] dioxadiazacyclononadecino[11,12-b] quinoline-8-carboxamide] |  |  | 1.9 nM | 0.19 nM
C=C[C@@H]1C[C@]1(NC(=O)[C@@H]1C[C@@H]2CN1C(=O)[C@H](C(C)(C)C)NC(=O)O[C@@H]1C[C@H]1CCCCCc1c(nc3ccccc3c1OC1CN(CC3CC3)C1)O2)C(=O)NS(=O)(=O)C1(C)CC1 [Example 223, (1aR,5S,8S,10R,22aR)-5-tert-butyl-17-{[1-(cyclopropylmethyl)azetidin-3-yl]oxy}-N-[(1R,2S)-2-ethenyl-1-{[(1-methylcyclopropyl)sulfonyl]carbamoyl}cyclopropyl]-3,6-dioxo-1,1a,3,4,5,6,9,10,18,19,20,21,22,22a-tetradecahydro-8H-7,10-methanocyclopropa[18,19][1,10,3,6]dioxadiazacyclononadecino[11,12-b]quinoline-8-carboxamide] |  |  | 1.2 nM | 0.055 nM
COc1c2c(nc3ccccc13)O[C@@H]1C[C@H]3C(=O)N[C@]4(C(=O)NS(=O)(=O)C5(C)CC5)C[C@H]4/C=C\CCCCC[C@H](NC(=O)O[C@@H]4C[C@H]4CCCCC2)C(=O)N3C1 [Example 305, (1aR,5S,11Z,12aS,13aR,16S,19R,31aR)-26-methoxy-N-[(1-methylcyclopropyl)sulfonyl]-3,15,33-trioxo-1,1a,3,4,5,6,7,8,9,10,12a,13,15,16,18,19,27,28,29,30,31,31a-docosahydro-5,17:16,19-dimethanodicyclopropa[12,13:28,29][1,20,3,14,17]dioxatriazacyclononacosino[21,22-b]quinoline-13a(14H)-carboxamide] |  |  | 2 nM | 0.066 nM
C=C[C@@H]1C[C@]1(NC(=O)[C@@H]1C[C@@H]2CN1C(=O)[C@H](C1CCCCC1)NC(=O)O[C@@H]1C[C@H]1CCCCCc1c(nc3c(OC)cccc3c1OCCN1CCCCC1)O2)C(=O)NS(=O)(=O)C1(C)CC1 [Example 216, (1aR,5S,8S,10R,22aR)-5-cyclohexyl-N-[(1R,2S)-2-ethenyl-1-{[(1-methylcyclopropyl)sulfonyl]carbamoyl}cyclopropyl]-13-methoxy-3,6-dioxo-17-[2-(piperidin-1-yl)ethoxy]-1,1a,3,4,5,6,9,10,18,19,20,21,22,22a-tetradecahydro-8H-7,10-methanocyclopropa[18,19][1,10,3,6] dioxadiazacyclononadecino[11,12-b]quinoline-8-carboxamide] |  |  | 6.4 nM | 0.24 nM
C=C[C@@H]1C[C@]1(NC(=O)[C@@H]1C[C@@H]2CN1C(=O)[C@H](C(C)(C)C)NC(=O)O[C@@H]1C[C@H]1CCCCCc1c(nc3c(F)cccc3c1OCCN1CCC1)O2)C(=O)NS(=O)(=O)C1(C)CC1 [Example 212, (1aR,5S,8S,10R,22aR)-17-[2-(azetidin-1-yl)ethoxy]-5-tent-butyl-N-[(1R,2S)-2-ethenyl-1-{[(1-methylcyclopropyl)sulfonyl]carbamoyl}cyclopropyl]-13-fluoro-3,6-dioxo-1,1a,3,4,5,6,9,10,18,19,20,21,22,22a-tetradecahydro-8H-7,10-methanocyclopropa[18,19][1,10,3,6] dioxadiazacyclononadecino[11,12-b]quinoline-8-carboxamide] |  |  | 1.9 nM | 0.22 nM
C=C[C@@H]1C[C@]1(NC(=O)[C@@H]1C[C@@H]2CN1C(=O)[C@H](C(C)(C)C)NC(=O)O[C@@H]1C[C@H]1CCCCCc1c(nc3ccccc3c1OCCN1CC3(CCC3)C1)O2)C(=O)NS(=O)(=O)C1(C)CC1 [Example 136, (1aR,5S,8S,10R,22aR)-17-[2-(2-azaspiro[3.3]hept-2-yl)ethoxy]-5-tert-butyl-N-[(1R,2S)-2-ethenyl-1-{[(1-methylcyclopropyl)sulfonyl]carbamoyl}cyclopropyl]-3,6-dioxo-1,1a,3,4,5,6,9,10,18,19,20,21,22,22a-tetradecahydro-8H-7,10-methanocyclopropa[18,19][1,10,3,6] dioxadiazacyclononadecino [11,12-b]quinoline-8-carboxamide] |  |  | 5.1 nM | 0.58 nM
C=C[C@@H]1C[C@]1(NC(=O)[C@@H]1C[C@@H]2CN1C(=O)[C@H](C1CCCC1)NC(=O)O[C@@H]1CCC[C@H]1CC/C=C/Cc1c(nc3ccccc3c1OCCCN1CCNC1=O)O2)C(=O)NS(=O)(=O)C1(C)CC1 [Example 48, (3aR,7S,10S,12R,21E,24aS)-7-cyclopentyl-N-[(1R,2S)-2-ethenyl-1-{[(1-methyl-cyclopropyl)sulfonyl]carbamoyl}cyclopropyl]-5,8-dioxo-19-[3-(2-oxoimidazolidin-1-yl)propoxy]-1,2,3,3a,5,6,7,8,11,12,20,23,24,24a-tetradecahydro-10H-9,12-methanocyclopenta [18,19][1,10,3,6]dioxadiazacyclononadecino [11,12-b]quinoline-10-carboxamide] |  |  | 0.76 nM | 0.12 nM
C=C[C@@H]1C[C@]1(NC(=O)[C@@H]1C[C@@H]2CN1C(=O)[C@H](C(C)(C)C)NC(=O)O[C@@H]1C[C@H]1CCCCCc1c(nc3ccccc3c1OCCCNC1CCOCC1)O2)C(=O)NS(=O)(=O)C1(C)CC1 [Example 181, (1aR,5S,8S,10R,22aR)-5-tert-butyl-N-[(1R,2S)-2-ethenyl-1-{[(1-methylcyclopropyl)sulfonyl]carbamoyl}cyclopropyl]-3,6-dioxo-17-[3-(tetrahydro-2H-pyran-4-ylamino)propoxy]-1,1a,3,4,5,6,9,10,18, 19,20,21,22,22a-tetradecahydro-8H-7,10-methanocyclopropa[18,19][1,10,3,6] dioxadiazacyclononadecino[11,12-b] quinoline-8-carboxamide] |  |  | 0.78 nM | 0.065 nM
C=C[C@@H]1C[C@]1(NC(=O)[C@@H]1C[C@@H]2CN1C(=O)[C@H](C1CCCC1)NC(=O)O[C@@H]1CCC[C@H]1CC/C=C/Cc1c(nc3ccccc3c1OCc1ccccc1)O2)C(=O)NS(=O)(=O)C1(C)CC1 [Example 15, (3aR,7S,10S,12R,21E,24aS)-19-(benzyloxy)-7-cyclopentyl-N-[(1H,2S)-2-ethenyl-1-{[(1-methylcyclopropyl)sulfonyl]carbamoyl}cyclopropyl]-5,8-dioxo-1,2,3,3a,5,6,7,8,11,12,20,23,24,24a-tetradecahydro-10H-9,12-methanocyclopenta[18,19] [1,10,3,6]dioxadiazacyclononadecino[11,12-b] quinoline-10-carboxamide] |  |  | 36 nM | 0.81 nM
C=C[C@@H]1C[C@]1(NC(=O)[C@@H]1C[C@@H]2CN1C(=O)[C@H](C1CCCCC1)NC(=O)O[C@@H]1C[C@H]1CCCCCc1c(nc3ccccc3c1OCCCSc1nccs1)O2)C(=O)NS(=O)(=O)C1(C)CC1 [Example 172] |  |  | 14 nM | 1.1 nM
C=C[C@@H]1C[C@]1(NC(=O)[C@@H]1C[C@@H]2CN1C(=O)[C@H](C(C)(C)C)NC(=O)O[C@@H]1C[C@H]1CCCCCc1c(nc3c(OC)cccc3c1OCCCn1ccnc1)O2)C(=O)NS(=O)(=O)C1(C)CC1 [Example 144, (1aR,5S,8S,10R,22aR)-5-tert-butyl-N-[(1R,2S)-2-ethenyl-1-{[(1-methylcyclopropyl)sulfonyl]carbamoyl}cyclopropyl]-17-[3-(1H-imidazol-1-yl)propoxy]-13-methoxy-3,6-dioxo-1,1a,3,4,5,6,9,10,18,19,20,21,22,22a-tetradecahydro-8H-7,10-methanocyclopropa[18,19][1,10,3,6]dioxadiazacyclononadecino[11,12-b]quinoline-8-carboxamide] |  |  | 6.2 nM | 0.61 nM
